pIC50: −log10 of the molar value.
Experiments:
[1] = biological target: T1, Steroid 17-alpha-hydroxylase/17,20 lyase (Homo sapiens, UniProt P05093); test: Inhibition of human CYP17 expressed in Escherichia coli coexpressing NADPH-P450 reductase at 2 uM
T1 sequence (P05093 whole entry): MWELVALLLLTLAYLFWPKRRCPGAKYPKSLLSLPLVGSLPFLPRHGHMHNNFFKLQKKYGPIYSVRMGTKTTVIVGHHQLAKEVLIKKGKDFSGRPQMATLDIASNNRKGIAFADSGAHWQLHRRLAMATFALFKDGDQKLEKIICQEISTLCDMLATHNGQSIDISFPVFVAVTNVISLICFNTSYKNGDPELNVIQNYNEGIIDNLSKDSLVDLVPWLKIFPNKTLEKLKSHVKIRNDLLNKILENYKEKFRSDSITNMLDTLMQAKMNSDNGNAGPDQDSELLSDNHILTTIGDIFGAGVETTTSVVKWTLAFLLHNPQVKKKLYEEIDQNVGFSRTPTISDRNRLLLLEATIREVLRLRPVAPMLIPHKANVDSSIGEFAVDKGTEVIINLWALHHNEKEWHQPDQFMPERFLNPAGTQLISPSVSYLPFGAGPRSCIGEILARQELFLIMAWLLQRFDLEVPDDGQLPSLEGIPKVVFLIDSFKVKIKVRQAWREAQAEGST

[2] = biological target: T1, Steroid 17-alpha-hydroxylase/17,20 lyase; test: Inhibition of human CYP17 expressed in Escherichia coli coexpressing NADPH-P450 reductase at 0.2 uM
[3] = biological target: T2, CYP3A4 (Homo sapiens, UniProt P08684); test: Inhibition of recombinant CYP3A4 expressed in baculovirus-infected insect microsome at 10 uM; format: ADME
[4] = biological target: T3, CYP11B1 (Homo sapiens, UniProt P15538); test: Inhibition of recombinant CYP11B1 expressed in expressed in V79MZh11B1 cells at 2 uM; format: cell-based; conditions: hamster, V79MZh11B1 cells expressing recombinant CYP11B1
T3 sequence (P15538 whole entry): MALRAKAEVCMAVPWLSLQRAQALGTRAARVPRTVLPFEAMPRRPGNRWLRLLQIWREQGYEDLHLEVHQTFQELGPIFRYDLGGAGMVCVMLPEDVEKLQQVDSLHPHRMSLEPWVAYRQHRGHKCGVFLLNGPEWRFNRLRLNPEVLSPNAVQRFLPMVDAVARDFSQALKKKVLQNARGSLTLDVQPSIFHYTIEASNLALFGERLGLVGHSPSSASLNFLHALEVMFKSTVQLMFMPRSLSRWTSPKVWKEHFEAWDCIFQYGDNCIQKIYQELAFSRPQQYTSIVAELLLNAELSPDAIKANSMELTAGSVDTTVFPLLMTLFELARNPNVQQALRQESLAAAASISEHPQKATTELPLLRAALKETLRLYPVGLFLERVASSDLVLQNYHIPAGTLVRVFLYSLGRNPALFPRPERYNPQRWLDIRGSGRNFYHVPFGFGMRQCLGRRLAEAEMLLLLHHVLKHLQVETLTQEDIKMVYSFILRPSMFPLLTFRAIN

[5] = biological target: T3, CYP11B1; test: Inhibition of recombinant CYP11B1 expressed in V79MZh11B1 cells at 0.2 uM; format: cell-based; conditions: hamster, V79MZh11B1 cells expressing recombinant CYP11B1
[6] = biological target: T2, CYP3A4; test: (§1) Inhibition of recombinant CYP3A4 expressed in baculovirus-infected insect microsome at 1 uM; format: ADME; conditions: human
[7] = biological target: T1, Steroid 17-alpha-hydroxylase/17,20 lyase; test: Inhibition of human CYP17 expressed in Escherichia coli coexpressing NADPH-P450 reductase
[8] = biological target: T1, Steroid 17-alpha-hydroxylase/17,20 lyase; test: Ratio of ketoconazole to drug against IC50 for human CYP17 expressed in Escherichia coli coexpressing NADPH-P450 reductase
[9] = biological target: Cytochrome P450 3A4 (Homo sapiens, UniProt P08684); test: as §1; format: ADME
[10] = biological target: T4, Cytochrome P450 11B1, mitochondrial (Homo sapiens, UniProt P15538); test: Inhibition of recombinant CYP11B1 expressed in expressed in V79MZh11B1 cells; format: cell-based
T4 sequence (P15538 whole entry): T3 sequence (P15538 whole entry)

T2 sequence (P08684 whole entry): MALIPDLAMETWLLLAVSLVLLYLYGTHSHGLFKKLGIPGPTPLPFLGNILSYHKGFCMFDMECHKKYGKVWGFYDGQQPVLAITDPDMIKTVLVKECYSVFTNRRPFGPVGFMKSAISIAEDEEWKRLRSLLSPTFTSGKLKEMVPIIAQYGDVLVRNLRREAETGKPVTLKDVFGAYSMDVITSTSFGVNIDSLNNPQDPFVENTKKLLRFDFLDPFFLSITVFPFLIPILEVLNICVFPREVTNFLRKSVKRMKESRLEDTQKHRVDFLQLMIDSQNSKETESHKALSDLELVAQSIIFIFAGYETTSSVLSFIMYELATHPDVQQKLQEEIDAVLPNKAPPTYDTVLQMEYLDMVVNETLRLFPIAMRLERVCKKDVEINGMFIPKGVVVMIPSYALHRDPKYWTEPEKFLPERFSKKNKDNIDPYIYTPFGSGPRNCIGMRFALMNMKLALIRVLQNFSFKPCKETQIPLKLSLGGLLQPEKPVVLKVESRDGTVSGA
Cytochrome P450 3A4, sequence (P08684 whole entry): as above

Row | SMILES | inhibition at 2 µM [1] | inhibition at 0.2 µM [2] | inhibition at 10 µM [3] | inhibition at 2 µM [4] | inhibition at 0.2 µM [5] | inhibition at 1 µM [6] | pIC50 [7] | pIC50 [9] | pIC50 [10] | Ratio IC50 [8]
1 | CCC(c1ccc(-c2ccc(OC)c(OC)c2)cc1)n1ccnc1 (racemic) | 58% | 9% | 93% | – | – | 70% | – | – | – | –
2 | CCC(c1ccc(-c2cc(O)cc(O)c2)cc1)n1ccnc1 (racemic) | 90% | 48% | 99% | 97% | 93% | 90% | 6.71 | – | – | –
3 | CCOc1ccc(-c2ccc(C(CC)n3ccnc3)cc2)cc1 (racemic) | 25% | 3% | – | – | – | – | – | – | – | –
4 | CC(=O)N1CCN(c2ccc(OCC3COC(Cn4ccnc4)(c4ccc(Cl)cc4Cl)O3)cc2)CC1 (stereo not given) [KETOCONAZOLE] | – | – | – | 93% | 61% | – | – | – | – | –
5 | CCC(c1ccc(-c2ccc(O)c(Cl)c2)cc1)n1ccnc1 (racemic) | 89% | 44% | 99% | 96% | 89% | – | 6.66 | 7.04 | – | 50
6 | CCC(c1ccc(-c2ccc(O)c(O)c2)cc1F)n1ccnc1 (racemic) | 95% | 69% | 100% | 90% | 51% | 93% | 7.28 | – | – | –
7 | CCC(c1ccc(-c2ccc(OC)cc2)cc1)n1ccnc1 (racemic) | 36% | 2% | 80% | – | – | 73% | – | – | – | –
8 | CCC(c1ccc(-c2ccc(O)cc2)cc1F)n1ccnc1 (racemic) | 94% | 64% | 91% | 97% | 89% | 86% | 7.05 | – | – | –
9 | CCC(c1ccc(-c2ccc(O)c(O)c2)cc1)n1ccnc1 (racemic) | 91% | 56% | 99% | 92% | 38% | 91% | 6.82 | – | – | –

Continued, in another order:

Row | inhibition at 2 µM [1] | inhibition at 0.2 µM [2] | inhibition at 10 µM [3] | inhibition at 2 µM [4] | inhibition at 0.2 µM [5] | inhibition at 1 µM [6] | pIC50 [7] | pIC50 [9] | pIC50 [10] | SMILES | Ratio IC50 [8]
10 | 40% | 9% | – | – | – | – | – | – | – | COc1ccc(-c2ccc(C(C)n3ccnc3)cc2)cc1 (racemic) | –
11 | 83% | 31% | 92% | 96% | 84% | 80% | 6.73 | – | – | CCC(c1ccc(-c2cccc(OC)c2)cc1)n1ccnc1 (racemic) | –
12 | 89% | 45% | 98% | 96% | 91% | 93% | 6.58 | – | – | CCC(c1ccc(-c2ccc(O)c(C)c2)cc1)n1ccnc1 (racemic) | 50
13 | 78% | 28% | 100% | 85% | 45% | 94% | 6.42 | – | – | CCC(c1ccc(-c2cc(C)c(O)c(C)c2)cc1)n1ccnc1 (racemic) | 50
14 | 59% | 8% | – | – | – | – | – | – | – | COc1cccc(-c2ccc(C(C)n3ccnc3)cc2)c1 (racemic) | –
15 | 89% | 55% | 88% | 95% | 90% | 84% | 6.79 | – | – | CCC(c1ccc(-c2cccc(O)c2)cc1)n1ccnc1 (racemic) | –
16 | – | – | – | – | – | – | – | – | 5.79 | C[C@]12CC[C@H](O)CC1=CC[C@@H]1[C@@H]2CC[C@]2(C)C(c3cccnc3)=CC[C@@H]12 [ABIRATERONE] | –
17 | 80% | 27% | 91% | 95% | 89% | 87% | 6.64 | – | – | CCC(c1ccc(-c2ccc(O)cc2)cc1)n1ccnc1 (racemic) | –

From ChEMBL document CHEMBL1152894, “Novel CYP17 inhibitors: synthesis, biological evaluation, structure-activity relationships and modelling of methoxy- and hydroxy-substituted methyleneimidazolyl biphenyls” (Eur J Med Chem, 2009)
